Experimental data from PubChem BioAssay (NCI).
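In this assay, cells in 96-well plates receive the compound at five concentrations for 48 hours. Endpoints are linearly interpolated between the surrounding concentrations. GI50 marks 50% less growth. Definition used: TGI = concentration required for complete inhibition of growth.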

Columns and labels:
Assay in all cases: NCI-60 cell line screen, 48 h
SN12C renal = system: SN12C renal
MDA-MB-435 = system: MDA-MB-435
SK-MEL-28 melanoma = system: SK-MEL-28 melanoma
HCC-2998 colon = system: HCC-2998 colon
NCI-H226 lung = system: NCI-H226 lung
HL-60(TB) leukemia = system: HL-60(TB) leukemia
HOP-92 NSCLC = system: HOP-92 NSCLC
HS 578T breast = system: HS 578T breast
DU-145 prostate = system: DU-145 prostate
SK-OV-3 ovarian = system: SK-OV-3 ovarian
SF-268 CNS = system: SF-268 CNS
NCI-H460 lung = system: NCI-H460 lung
T-47D breast = system: T-47D breast
SNB-75 CNS = system: SNB-75 CNS
U251 CNS = system: U251 CNS
NCI/ADR-RES ovarian = system: NCI/ADR-RES ovarian
ACHN renal = system: ACHN renal
SF-295 CNS = system: SF-295 CNS
OVCAR-3 ovarian = system: OVCAR-3 ovarian
OVCAR-5 ovarian = system: OVCAR-5 ovarian
K-562 leukemia = system: K-562 leukemia
SK-MEL-5 melanoma = system: SK-MEL-5 melanoma
COLO 205 colon = system: COLO 205 colon
HOP-62 NSCLC = system: HOP-62 NSCLC
M14 melanoma = system: M14 melanoma
MOLT-4 leukemia = system: MOLT-4 leukemia
HT29 colon = system: HT29 colon
CCRF-CEM leukemia = system: CCRF-CEM leukemia
LOX IMVI melanoma = system: LOX IMVI melanoma
MCF7 breast = system: MCF7 breast
PC-3 prostate = system: PC-3 prostate
RXF 393 renal = system: RXF 393 renal
BT-549 breast = system: BT-549 breast
IGROV1 ovarian = system: IGROV1 ovarian
EKVX NSCLC = system: EKVX NSCLC
SK-MEL-2 melanoma = system: SK-MEL-2 melanoma
UACC-62 melanoma = system: UACC-62 melanoma
SW-620 colon = system: SW-620 colon
MDA-MB-231 breast = system: MDA-MB-231 breast
SR leukemia = system: SR leukemia
NCI-H23 lung = system: NCI-H23 lung
OVCAR-4 ovarian = system: OVCAR-4 ovarian
RPMI-8226 leukemia = system: RPMI-8226 leukemia
UO-31 renal = system: UO-31 renal
SNB-19 CNS = system: SNB-19 CNS
HCT-116 colon = system: HCT-116 colon
A498 renal = system: A498 renal
CAKI-1 renal = system: CAKI-1 renal
A549 NSCLC = system: A549 NSCLC
786-0 renal = system: 786-0 renal
TK-10 renal = system: TK-10 renal
HCT-15 colon = system: HCT-15 colon
NCI-H522 lung = system: NCI-H522 lung
SF-539 CNS = system: SF-539 CNS

## Clc1nc(Cl)c2ncn(CC#CCn3cnc4c(Cl)nc(Cl)nc43)c2n1
SN12C renal
  GI50: 2.66 µM
  TGI: 6.5 µM
MDA-MB-435
  GI50: 3.25 µM
  TGI: 8.56 µM
SK-MEL-28 melanoma
  GI50: 1.82 µM
  TGI: 3.39 µM
HCC-2998 colon
  GI50: 2.08 µM
  TGI: 4.05 µM
NCI-H226 lung
  GI50: 3.18 µM
  TGI: 7.94 µM
HL-60(TB) leukemia
  GI50: 2.41 µM
  TGI: > 100 µM
HOP-92 NSCLC
  GI50: 2.21 µM
  TGI: 4.02 µM
HS 578T breast
  GI50: 2.49 µM
  TGI: 6.79 µM
DU-145 prostate
  GI50: 1.78 µM
  TGI: 3.23 µM
SK-OV-3 ovarian
  GI50: 10.5 µM
  TGI: 22.5 µM
SF-268 CNS
  GI50: 1.89 µM
  TGI: 3.76 µM
NCI-H460 lung
  GI50: 3.41 µM
  TGI: 12.4 µM
T-47D breast
  GI50: 1.85 µM
  TGI: 4.13 µM
SNB-75 CNS
  GI50: 2.87 µM
  TGI: 7.76 µM
U251 CNS
  GI50: 2.28 µM
  TGI: 4.75 µM
NCI/ADR-RES ovarian
  GI50: 3.73 µM
  TGI: 24.1 µM
ACHN renal
  GI50: 1.9 µM
  TGI: 3.32 µM
SF-295 CNS
  GI50: 6.69 µM
  TGI: 20.4 µM
OVCAR-3 ovarian
  GI50: 2.06 µM
  TGI: 3.71 µM
OVCAR-5 ovarian
  GI50: 10.5 µM
  TGI: 25.6 µM
K-562 leukemia
  GI50: 2.39 µM
  TGI: 6.24 µM
SK-MEL-5 melanoma
  GI50: 11.1 µM
  TGI: 23.3 µM
COLO 205 colon
  GI50: 1.7 µM
  TGI: 3.36 µM
HOP-62 NSCLC
  GI50: 1.9 µM
  TGI: 3.89 µM
M14 melanoma
  GI50: 2.6 µM
  TGI: 5.62 µM
MOLT-4 leukemia
  GI50: 0.554 µM
  TGI: 2.48 µM
HT29 colon
  GI50: 1.89 µM
  TGI: 3.69 µM
CCRF-CEM leukemia
  GI50: 1.9 µM
  TGI: 3.89 µM
LOX IMVI melanoma
  GI50: 1.86 µM
  TGI: 3.41 µM
MCF7 breast
  GI50: 2.18 µM
  TGI: 5.96 µM
PC-3 prostate
  GI50: 3.61 µM
  TGI: 11.1 µM
RXF 393 renal
  GI50: 1.35 µM
  TGI: 2.98 µM
BT-549 breast
  GI50: 3.3 µM
  TGI: 11.3 µM
IGROV1 ovarian
  GI50: 1.54 µM
  TGI: 3.37 µM
EKVX NSCLC
  GI50: 2.6 µM
  TGI: 6.2 µM
SK-MEL-2 melanoma
  GI50: 2.53 µM
  TGI: 5.55 µM
UACC-62 melanoma
  GI50: 1.96 µM
  TGI: 3.66 µM
SW-620 colon
  GI50: 1.84 µM
  TGI: 3.46 µM
MDA-MB-231 breast
  GI50: 2.42 µM
  TGI: 4.93 µM
SR leukemia
  GI50: 0.38 µM
  TGI: 2.19 µM
NCI-H23 lung
  GI50: 3.05 µM
  TGI: 8.52 µM
OVCAR-4 ovarian
  GI50: 1.89 µM
  TGI: 3.36 µM
RPMI-8226 leukemia
  GI50: 2.09 µM
  TGI: 5.07 µM
UO-31 renal
  GI50: 1.67 µM
  TGI: 3.31 µM
SNB-19 CNS
  GI50: 2.01 µM
  TGI: 4.25 µM
HCT-116 colon
  GI50: 1.78 µM
  TGI: 3.42 µM
A498 renal
  GI50: 10.6 µM
  TGI: 23 µM
CAKI-1 renal
  GI50: 2.05 µM
  TGI: 3.91 µM
A549 NSCLC
  GI50: 2.49 µM
  TGI: 9.32 µM
786-0 renal
  GI50: 3.46 µM
  TGI: 11.4 µM
TK-10 renal
  GI50: 5.51 µM
  TGI: 17.8 µM
HCT-15 colon
  GI50: 1.99 µM
  TGI: 4.06 µM
NCI-H522 lung
  GI50: 1.56 µM
  TGI: 3.51 µM
SF-539 CNS
  GI50: 2.56 µM
  TGI: 6.86 µM
